Data reported in US7074789B2, “Kinase inhibitors” (Amgen Inc., priority 1999, dated 2006).
Values joined by “and” are separate entries in the source; they are usually repeats but may differ in a detail not shown here. Equal values may be shown once.

Tests used:
Format in all cases: biochemical
AKT = molecular target: T1, AKT (Homo sapiens, UniProt Q9Y243); test: Kinase inhibition assay (33P transfer), AKT; settings: Table 2, kinase inhibition class; read-out: AKT3-1
T1 construct: Kinases are expressed as either kinase domains or full length constructs; made in house
T1 sequence (Q9Y243 whole entry, the tested form may be a part): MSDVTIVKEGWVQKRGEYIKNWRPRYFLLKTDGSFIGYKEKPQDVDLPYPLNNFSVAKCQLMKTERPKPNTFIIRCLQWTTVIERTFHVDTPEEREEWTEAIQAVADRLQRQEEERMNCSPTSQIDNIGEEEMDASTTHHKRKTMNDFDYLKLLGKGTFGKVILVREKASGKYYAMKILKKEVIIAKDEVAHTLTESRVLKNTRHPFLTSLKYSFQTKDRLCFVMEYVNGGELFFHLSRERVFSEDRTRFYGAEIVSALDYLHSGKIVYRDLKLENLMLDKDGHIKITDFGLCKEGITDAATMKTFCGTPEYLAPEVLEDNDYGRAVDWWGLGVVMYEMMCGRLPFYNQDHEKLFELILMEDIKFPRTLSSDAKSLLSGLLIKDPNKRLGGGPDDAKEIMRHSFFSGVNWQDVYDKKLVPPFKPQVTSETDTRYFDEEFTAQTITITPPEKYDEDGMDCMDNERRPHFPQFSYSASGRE
How it was run: (§1)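 Filterless plate radiometric format: immobilized poly(Glu,Tyr) 4:1 or poly(Arg,Ser) 3:1, 33P-labelled ATP, tagged recombinant kinase (some with regulatory partners). Incorporated label counted after phosphoric acid wash.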

Kdr = molecular target: T2, Kdr (Homo sapiens, UniProt P35968); test: Kinase inhibition assay (33P transfer), Kdr; settings: Table 3; read-out: KDR-1
T2 construct: Kinases are expressed as either kinase domains or full length constructs; made in house
T2 sequence (P35968 20-1356, species assumed): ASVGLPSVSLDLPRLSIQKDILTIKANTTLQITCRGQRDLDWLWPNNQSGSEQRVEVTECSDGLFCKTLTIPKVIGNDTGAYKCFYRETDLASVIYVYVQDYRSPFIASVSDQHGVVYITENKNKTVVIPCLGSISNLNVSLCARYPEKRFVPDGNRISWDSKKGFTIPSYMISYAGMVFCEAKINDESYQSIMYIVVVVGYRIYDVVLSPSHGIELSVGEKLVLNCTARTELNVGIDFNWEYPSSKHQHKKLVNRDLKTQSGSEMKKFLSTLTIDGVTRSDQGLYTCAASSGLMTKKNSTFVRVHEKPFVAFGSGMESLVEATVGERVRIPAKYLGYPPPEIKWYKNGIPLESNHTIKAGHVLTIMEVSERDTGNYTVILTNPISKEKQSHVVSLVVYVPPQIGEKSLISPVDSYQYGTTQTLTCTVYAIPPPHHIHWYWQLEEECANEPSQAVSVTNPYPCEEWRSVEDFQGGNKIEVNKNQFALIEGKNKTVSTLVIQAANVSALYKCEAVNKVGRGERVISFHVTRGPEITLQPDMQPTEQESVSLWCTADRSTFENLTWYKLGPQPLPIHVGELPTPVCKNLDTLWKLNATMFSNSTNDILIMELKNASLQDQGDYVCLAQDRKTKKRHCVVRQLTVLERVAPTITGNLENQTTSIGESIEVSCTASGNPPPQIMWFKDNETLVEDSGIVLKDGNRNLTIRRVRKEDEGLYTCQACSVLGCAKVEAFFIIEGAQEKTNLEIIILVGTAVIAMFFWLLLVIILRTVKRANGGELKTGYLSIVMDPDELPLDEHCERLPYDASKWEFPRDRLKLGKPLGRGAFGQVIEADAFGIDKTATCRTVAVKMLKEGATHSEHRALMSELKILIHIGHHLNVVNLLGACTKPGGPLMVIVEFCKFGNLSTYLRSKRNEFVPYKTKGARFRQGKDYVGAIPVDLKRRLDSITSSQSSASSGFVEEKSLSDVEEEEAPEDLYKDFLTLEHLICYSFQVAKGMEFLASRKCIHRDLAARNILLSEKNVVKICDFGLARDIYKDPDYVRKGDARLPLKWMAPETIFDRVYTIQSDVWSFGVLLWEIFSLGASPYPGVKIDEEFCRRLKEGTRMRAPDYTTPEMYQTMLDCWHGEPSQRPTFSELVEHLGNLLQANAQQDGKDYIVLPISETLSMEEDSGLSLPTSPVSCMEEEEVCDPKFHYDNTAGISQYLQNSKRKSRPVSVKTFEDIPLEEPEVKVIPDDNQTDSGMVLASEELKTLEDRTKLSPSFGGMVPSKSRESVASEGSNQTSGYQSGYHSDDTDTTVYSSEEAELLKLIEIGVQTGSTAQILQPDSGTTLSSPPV
How it was run: as §1

Zap-70 = molecular target: T3, Zap-70 (Homo sapiens, UniProt P43403); test: Kinase inhibition assay (33P transfer), Zap-70; settings: Table 3; read-out: Zap-1
T3 construct: Kinases are expressed as either kinase domains or full length constructs; made in house
T3 sequence (P43403 1-619): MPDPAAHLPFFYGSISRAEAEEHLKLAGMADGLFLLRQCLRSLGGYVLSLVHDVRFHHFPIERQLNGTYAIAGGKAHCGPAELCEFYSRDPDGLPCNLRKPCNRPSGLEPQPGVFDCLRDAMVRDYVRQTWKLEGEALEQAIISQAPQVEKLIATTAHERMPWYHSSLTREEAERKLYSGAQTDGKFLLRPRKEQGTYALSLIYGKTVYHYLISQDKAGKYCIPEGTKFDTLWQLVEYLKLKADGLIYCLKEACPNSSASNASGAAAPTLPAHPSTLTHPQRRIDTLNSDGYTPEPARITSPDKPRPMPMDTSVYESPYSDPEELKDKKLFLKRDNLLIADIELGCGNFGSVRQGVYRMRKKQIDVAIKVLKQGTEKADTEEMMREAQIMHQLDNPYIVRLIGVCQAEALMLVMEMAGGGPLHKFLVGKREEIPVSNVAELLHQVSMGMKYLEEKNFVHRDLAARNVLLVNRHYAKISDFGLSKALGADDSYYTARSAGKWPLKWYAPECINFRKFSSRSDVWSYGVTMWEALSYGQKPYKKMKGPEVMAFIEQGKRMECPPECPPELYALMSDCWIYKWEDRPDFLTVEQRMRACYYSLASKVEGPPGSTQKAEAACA
How it was run: as §1

IGFR-1 = molecular target: T4, IGFR-1 (Homo sapiens, UniProt P08069); test: Kinase inhibition assay (33P transfer), IGFR-1; settings: Table 2, kinase inhibition class
T4 construct: Kinases are expressed as either kinase domains or full length constructs; made in house

EGFR = molecular target: T5, EGFR (Homo sapiens, UniProt P00533); test: Kinase inhibition assay (33P transfer), EGFR; settings: Table 2, kinase inhibition class; read-out: EGFR-1
T5 construct: Kinases are expressed as either kinase domains or full length constructs; made in house
T5 sequence (P00533 25-1210, species assumed): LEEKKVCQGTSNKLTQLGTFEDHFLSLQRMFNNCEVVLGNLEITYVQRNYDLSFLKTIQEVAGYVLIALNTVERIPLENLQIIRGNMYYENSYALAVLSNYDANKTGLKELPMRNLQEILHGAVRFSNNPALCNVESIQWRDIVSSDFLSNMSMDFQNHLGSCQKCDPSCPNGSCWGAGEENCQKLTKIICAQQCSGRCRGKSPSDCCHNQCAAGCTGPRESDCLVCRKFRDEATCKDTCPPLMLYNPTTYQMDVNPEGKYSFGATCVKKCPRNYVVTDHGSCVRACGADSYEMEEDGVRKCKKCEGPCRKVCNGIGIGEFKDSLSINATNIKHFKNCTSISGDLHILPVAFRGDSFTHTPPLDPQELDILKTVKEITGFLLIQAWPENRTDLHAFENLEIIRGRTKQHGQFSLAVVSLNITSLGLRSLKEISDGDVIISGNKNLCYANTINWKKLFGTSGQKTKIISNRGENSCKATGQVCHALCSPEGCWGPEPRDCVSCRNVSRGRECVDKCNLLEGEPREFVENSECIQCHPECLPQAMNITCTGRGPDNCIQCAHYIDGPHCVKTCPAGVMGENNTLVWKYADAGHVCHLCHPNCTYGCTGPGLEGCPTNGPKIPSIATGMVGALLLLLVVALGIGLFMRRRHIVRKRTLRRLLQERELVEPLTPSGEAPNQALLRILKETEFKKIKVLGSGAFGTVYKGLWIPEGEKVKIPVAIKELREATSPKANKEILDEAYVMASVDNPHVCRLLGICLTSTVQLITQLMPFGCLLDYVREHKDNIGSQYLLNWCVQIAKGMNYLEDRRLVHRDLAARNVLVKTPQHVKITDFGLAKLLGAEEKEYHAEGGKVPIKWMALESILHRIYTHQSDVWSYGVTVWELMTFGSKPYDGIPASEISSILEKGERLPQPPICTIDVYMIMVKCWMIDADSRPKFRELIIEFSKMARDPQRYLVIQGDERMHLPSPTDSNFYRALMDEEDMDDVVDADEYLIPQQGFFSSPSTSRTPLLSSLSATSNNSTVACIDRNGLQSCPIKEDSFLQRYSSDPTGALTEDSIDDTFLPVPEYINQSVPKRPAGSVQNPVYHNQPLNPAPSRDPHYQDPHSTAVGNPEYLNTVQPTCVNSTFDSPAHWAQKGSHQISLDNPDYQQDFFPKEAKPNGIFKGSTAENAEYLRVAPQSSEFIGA
How it was run: (§2)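 Radiometric format: recombinant tagged kinase (catalytic domain or whole protein, sometimes combined with regulatory polypeptides) phosphorylates immobilised poly(Glu,Tyr) 4:1 or poly(Arg,Ser) 3:1 using [33P]ATP. Wells are washed in 0.5% phosphoric acid, then counted. IC50 is taken where substrate labelling falls by half.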

Lck = molecular target: T6, Lck (Homo sapiens, UniProt P06239); test: Kinase inhibition assay (33P transfer), Lck; settings: Table 3; read-out: Lck-1
T6 construct: Kinases are expressed as either kinase domains or full length constructs; made in house
T6 sequence (P06239 whole entry, species assumed, the tested form may be a part): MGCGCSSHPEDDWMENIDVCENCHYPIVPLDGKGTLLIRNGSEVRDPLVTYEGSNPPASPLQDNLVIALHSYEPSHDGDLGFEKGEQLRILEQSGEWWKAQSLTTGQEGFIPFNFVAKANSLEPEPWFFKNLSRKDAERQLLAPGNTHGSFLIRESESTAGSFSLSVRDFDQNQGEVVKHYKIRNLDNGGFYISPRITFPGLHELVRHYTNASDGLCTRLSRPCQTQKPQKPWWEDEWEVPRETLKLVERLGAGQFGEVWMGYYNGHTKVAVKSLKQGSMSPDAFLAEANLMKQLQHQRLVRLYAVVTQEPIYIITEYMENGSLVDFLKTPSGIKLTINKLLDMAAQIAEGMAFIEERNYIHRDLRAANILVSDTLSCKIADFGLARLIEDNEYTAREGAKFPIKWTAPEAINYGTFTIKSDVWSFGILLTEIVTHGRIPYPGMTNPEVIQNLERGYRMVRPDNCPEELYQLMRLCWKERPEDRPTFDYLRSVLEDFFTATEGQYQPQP
How it was run: as §1

Itk = molecular target: T7, Itk (Homo sapiens, UniProt Q08881); test: Kinase inhibition assay (33P transfer), Itk; settings: Table 3; read-out: Itk-1
T7 construct: Kinases are expressed as either kinase domains or full length constructs; made in house
T7 sequence (Q08881 1-620): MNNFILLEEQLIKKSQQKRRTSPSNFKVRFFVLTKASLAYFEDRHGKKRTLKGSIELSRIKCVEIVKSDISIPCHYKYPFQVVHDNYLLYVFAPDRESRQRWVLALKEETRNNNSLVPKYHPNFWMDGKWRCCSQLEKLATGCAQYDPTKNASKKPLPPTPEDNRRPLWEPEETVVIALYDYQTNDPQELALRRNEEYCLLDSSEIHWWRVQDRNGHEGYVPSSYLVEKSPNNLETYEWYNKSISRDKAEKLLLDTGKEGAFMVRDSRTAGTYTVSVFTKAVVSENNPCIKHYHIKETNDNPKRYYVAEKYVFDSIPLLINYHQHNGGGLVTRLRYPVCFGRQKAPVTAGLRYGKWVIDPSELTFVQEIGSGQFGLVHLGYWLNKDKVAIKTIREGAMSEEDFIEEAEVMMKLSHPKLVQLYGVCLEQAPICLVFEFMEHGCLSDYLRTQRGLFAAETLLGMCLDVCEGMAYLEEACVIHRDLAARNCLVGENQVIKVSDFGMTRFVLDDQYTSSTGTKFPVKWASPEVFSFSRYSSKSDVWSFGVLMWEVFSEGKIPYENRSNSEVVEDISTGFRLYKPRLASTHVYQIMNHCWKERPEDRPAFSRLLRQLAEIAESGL
How it was run: as §2

c-Met = molecular target: T8, c-Met (Homo sapiens, UniProt P08581); test: Kinase inhibition assay (33P transfer), c-Met; settings: Table 2, kinase inhibition class; read-out: Met-1
T8 construct: Kinases are expressed as either kinase domains or full length constructs; made in house
T8 sequence (P08581 25-1390): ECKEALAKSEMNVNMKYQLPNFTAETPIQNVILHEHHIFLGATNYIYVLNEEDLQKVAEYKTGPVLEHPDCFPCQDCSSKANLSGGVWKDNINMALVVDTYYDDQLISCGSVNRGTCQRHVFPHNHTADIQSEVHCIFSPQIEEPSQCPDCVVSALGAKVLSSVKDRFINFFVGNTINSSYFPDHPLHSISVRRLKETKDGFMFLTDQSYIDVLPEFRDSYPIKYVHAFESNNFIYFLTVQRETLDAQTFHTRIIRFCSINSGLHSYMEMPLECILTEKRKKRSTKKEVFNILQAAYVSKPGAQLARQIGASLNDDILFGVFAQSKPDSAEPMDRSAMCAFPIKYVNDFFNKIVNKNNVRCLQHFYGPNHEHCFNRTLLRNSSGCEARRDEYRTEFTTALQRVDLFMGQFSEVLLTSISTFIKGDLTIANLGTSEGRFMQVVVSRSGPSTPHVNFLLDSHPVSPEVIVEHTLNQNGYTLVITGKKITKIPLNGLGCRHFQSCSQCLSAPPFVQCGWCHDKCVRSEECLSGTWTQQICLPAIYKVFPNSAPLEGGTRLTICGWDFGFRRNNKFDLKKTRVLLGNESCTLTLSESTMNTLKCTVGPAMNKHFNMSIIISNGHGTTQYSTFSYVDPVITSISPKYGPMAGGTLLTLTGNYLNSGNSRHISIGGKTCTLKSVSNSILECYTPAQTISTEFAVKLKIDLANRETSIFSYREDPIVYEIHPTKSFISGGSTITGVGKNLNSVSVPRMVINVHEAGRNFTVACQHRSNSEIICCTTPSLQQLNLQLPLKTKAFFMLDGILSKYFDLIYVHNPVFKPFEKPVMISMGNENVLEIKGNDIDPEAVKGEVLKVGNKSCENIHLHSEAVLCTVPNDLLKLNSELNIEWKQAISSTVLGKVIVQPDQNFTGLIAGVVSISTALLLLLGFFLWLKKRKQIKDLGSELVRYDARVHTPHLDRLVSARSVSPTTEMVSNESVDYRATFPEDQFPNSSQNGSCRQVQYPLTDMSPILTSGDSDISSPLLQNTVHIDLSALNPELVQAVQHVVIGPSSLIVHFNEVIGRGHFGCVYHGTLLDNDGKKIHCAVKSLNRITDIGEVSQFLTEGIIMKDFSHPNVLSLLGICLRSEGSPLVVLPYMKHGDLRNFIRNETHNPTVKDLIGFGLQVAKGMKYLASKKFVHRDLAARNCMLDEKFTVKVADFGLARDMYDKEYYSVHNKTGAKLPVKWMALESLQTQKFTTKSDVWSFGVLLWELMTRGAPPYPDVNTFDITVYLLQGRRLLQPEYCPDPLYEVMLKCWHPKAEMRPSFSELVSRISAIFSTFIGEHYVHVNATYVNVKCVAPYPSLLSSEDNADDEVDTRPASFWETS
How it was run: as §2

Row | IC50 (AKT) | IC50 (Kdr) | IC50 (Zap-70) | IC50 (IGFR-1) | IC50 (EGFR) | IC50 (Lck) | IC50 (Itk) | IC50 (c-Met) | Structure (SMILES)
1 | > 15.4 µM | 12 to 15.4 µM | > 15.4 µM | > 15.4 µM | > 15.4 µM | > 15.4 µM | > 15.4 µM | > 15.4 µM | NC(=O)c1cccc(Nc2ncnc(-c3ccccc3)n2)c1 [Compound 151]
2 | > 14.4 µM | 11.2 to 14.4 µM | > 14.4 µM | > 14.4 µM | > 14.4 µM | > 14.4 µM | > 14.4 µM | > 14.4 µM | Clc1ncnc(Nc2ccc(OCc3ccccc3)cc2)n1 [Compound 153]
3 | > 12.1 µM | > 12.1 µM and 6.46 to 9.42 µM | > 12.1 µM | > 12.1 µM | 9.42 to 12.1 µM and > 12.1 µM | 1.08 to 6.46 µM and > 12.1 µM | > 12.1 µM | > 12.1 µM | COc1cc(Nc2ncnc(Nc3cc(C)nn3C)n2)cc(OC)c1OC [Compound 393]
4 | > 16.5 µM | > 16.5 µM | > 16.5 µM | > 16.5 µM | > 16.5 µM | > 16.5 µM | > 16.5 µM | > 16.5 µM | Fc1cccc(Nc2ncnc(-c3cccs3)n2)c1 [Compound 1073]
5 | > 15.1 µM | > 15.1 µM | > 15.1 µM | > 15.1 µM | > 15.1 µM | > 15.1 µM | > 15.1 µM | > 15.1 µM | NC(=O)c1ccc(Nc2ncnc(-c3cccs3)n2)cc1 [Compound 354]
6 | > 14.5 µM | > 14.5 µM | > 14.5 µM | > 14.5 µM | > 14.5 µM | > 14.5 µM | > 14.5 µM | > 14.5 µM | CC(=O)Nc1ccc(Nc2ncnc(-c3cccs3)n2)cc1 [Compound 355]
7 | > 15 µM | > 15 µM | > 15 µM | > 15 µM | > 15 µM | > 15 µM | > 15 µM | > 15 µM | O=[N+]([O-])c1cccc(Nc2ncnc(-c3cccs3)n2)c1 [Compound 352]
8 | > 14.3 µM | > 14.3 µM | > 14.3 µM | > 14.3 µM | > 14.3 µM | > 14.3 µM | > 14.3 µM | > 14.3 µM | COc1ccc(Nc2ncnc(-c3cccs3)n2)cc1OC [Compound 357]
9 | > 10.6 µM | 0.942 to 5.65 µM | > 10.6 µM | > 10.6 µM | > 10.6 µM | > 10.6 µM | > 10.6 µM | 5.65 to 8.25 µM | COc1cc(Nc2ncnc(N3CCN(c4ncccn4)CC3)n2)cc(OC)c1OC [Compound 214]
10 | > 16.2 µM | > 16.2 µM | > 16.2 µM | > 16.2 µM | > 16.2 µM | > 16.2 µM | > 16.2 µM | > 16.2 µM | OCc1ccc(Nc2ncnc(-c3ccccc3)n2)cc1 [Compound 165]
11 | > 12.2 µM | > 12.2 µM | > 12.2 µM | > 12.2 µM | > 12.2 µM | > 12.2 µM | > 12.2 µM | > 12.2 µM | FC(F)C(F)(F)Oc1cccc(Nc2ncnc(-c3cccs3)n2)c1 [Compound 350]
12 | > 11.4 µM | > 11.4 µM | > 11.4 µM | > 11.4 µM | > 11.4 µM | > 11.4 µM | > 11.4 µM | > 11.4 µM | COc1cc(Nc2ncnc(N3CCc4ccccc4C3)n2)cc(OC)c1OC [Compound 326]
13 | > 15.4 µM | > 15.4 µM | > 15.4 µM | > 15.4 µM | > 15.4 µM | > 15.4 µM | > 15.4 µM | > 15.4 µM | NC(=O)c1ccc(Nc2ncnc(-c3ccccc3)n2)cc1 [Compound 1028]
14 | > 9.4 µM | > 9.4 µM | > 9.4 µM | > 9.4 µM | > 9.4 µM | > 9.4 µM | > 9.4 µM | > 9.4 µM | COc1ccc2c(c1)c(CCN(C)C)cn2-c1ncnc(Nc2cc(OC)c(OC)c(OC)c2)n1 [Compound 333]
15 | 10.1 to 13 µM | > 13 µM | > 13 µM | > 13 µM | > 13 µM | > 13 µM | > 13 µM | > 13 µM | COc1cc(Nc2ncnc(N3CCOCC3)n2)cc(OC)c1OC [Compound 209]
16 | > 10.3 µM | 0.914 to 5.49 µM | > 10.3 µM | > 10.3 µM | > 10.3 µM | 8 to 10.3 µM | > 10.3 µM | > 10.3 µM | COc1cc(Nc2ncnc(-n3c(NCCO)nc4ccccc43)n2)cc(OC)c1OC [Compound 391]
17 | > 13.3 µM | 1.18 to 7.07 µM | > 13.3 µM | > 13.3 µM | > 13.3 µM | 1.18 to 7.07 µM | > 13.3 µM | > 13.3 µM | COc1cc(Nc2ncnc(-c3ccncc3)n2)cc(OC)c1OC [Compound 42]
18 | > 10.1 µM | 5.38 to 7.84 µM | > 10.1 µM | > 10.1 µM | > 10.1 µM | > 10.1 µM | > 10.1 µM | > 10.1 µM | COc1cc(Nc2ncnc(N3CCN(C(=O)OC(C)(C)C)CC3)n2)cc(OC)c1OC [Compound 211]
19 | > 13.7 µM | 7.31 to 10.7 µM | > 13.7 µM | > 13.7 µM | > 13.7 µM | > 13.7 µM | > 13.7 µM | > 13.7 µM | COc1cc(Nc2ncnc(-n3ccnc3)n2)cc(OC)c1OC [Compound 183]
20 | > 12 µM | > 12 µM | > 12 µM | > 12 µM | > 12 µM | > 12 µM | > 12 µM | > 12 µM | COc1cc(Nc2ncnc(-c3ccnc(Cl)c3)n2)cc(OC)c1OC [Compound 331]
21 | > 10.6 µM | 0.945 to 5.67 µM | > 10.6 µM | > 10.6 µM | > 10.6 µM | > 10.6 µM | > 10.6 µM | > 10.6 µM | COc1cc(Nc2ncnc(N3CCN(c4ccccn4)CC3)n2)cc(OC)c1OC [Compound 213]
22 | > 13.5 µM | > 13.5 µM | > 13.5 µM | > 13.5 µM | > 13.5 µM | > 13.5 µM | > 13.5 µM | > 13.5 µM | CCOC(=O)Cc1ccc(Nc2ncnc(-c3ccccc3)n2)cc1 [Compound 164]
23 | > 10.6 µM | 0.938 to 5.63 µM | 8.21 to 10.6 µM | 0.938 to 5.63 µM | > 10.6 µM | 0.938 to 5.63 µM | > 10.6 µM | 8.21 to 10.6 µM | COc1cccc(NC(=O)Nc2ncnc(Nc3cc(OC)c(OC)c(OC)c3)n2)c1 [Compound 21]
24 | > 11.9 µM | > 11.9 µM | > 11.9 µM | 6.34 to 9.25 µM | > 11.9 µM | 1.06 to 6.34 µM | 1.06 to 6.34 µM | > 11.9 µM | COc1cc(Nc2ncnc(-n3ccc4cccnc43)n2)cc(OC)c1OC [Compound 327]
25 | > 12.6 µM | > 12.6 µM | > 12.6 µM | > 12.6 µM | > 12.6 µM | > 12.6 µM | > 12.6 µM | > 12.6 µM | COc1cc(Nc2ncnc(Nc3ncncn3)n2)cc(OC)c1OC [Compound 254]
